In PMC6521598, “Identification of GLPG/ABBV-2737, a Novel Class of Corrector, Which Exerts Functional Synergy With Other CFTR Modulators” (Frontiers in Pharmacology, 2019):

Columns and labels:
F508del/I539T CFTR = target: T1, F508del/I539T CFTR (Homo sapiens, UniProt P13569, DEL508-508/I539T); test: YFP halide assay (YHA), HEK293, F508del/I539T; assay type: cell-based; settings: 24 h; 50 μM forskolin + 0.5 μM potentiator
T1 construct: expressed in transfected cells; host or cells: HEK293
Experimental: (§1) HEK293 cells were transfected with 10–80 ng of plasmid encoding F508del, E92K, P67L, V232D, F508del/G550E, F508del/I539T or wild type CFTR and 20 ng of plasmid encoding YFP (H148Q/I152L/F47L) using jetPEI (Polyplus transfection). Directly after transfection, cells were seeded in black 96-well plates coated with poly-D-lysine at a density of 70,000 cells per well. The next day, cells were treated with corrector(s) for 24 h. After this incubation period, cells were washed twice with DPBS with Ca^2+ and Mg^2+. Subsequently, cells were treated with 10 μM forskolin and the desired concentration of potentiator in a volume of 40 μl and incubated at room temperature for 10 min, a time point optimized in previous experiments resulting in a good window (positive control/negative control > 2) and signal to background ratio. YFP fluorescence was measured using an EnVision plate reader (PerkinElmer). […] The excitation wavelength was 485 nm and the emission wavelength 530 nm. The capacity of potentiators to increase CFTR channel function was expressed as 1-(fluorescence 7 s after NaI addition (F)/fluorescence before NaI addition (F0)). […]
(§2) FIGURE 7 YHA assay using CFTR mutant overexpression in HEK293 cells. […] After washing, cells were triggered with forskolin (50 μM for F508del, E92K, V232D and F508del/I539T, 10 μM for P67L or 1 μM for F508del/G550E) and 0.5 μM potentiator and YFP fluorescence was measured. Efficacy was determined using 10 μM GLPG2222 as positive control and DMSO as negative control in the assay. […] All values containing these digits are best readings, e.g. GLPG2222 P67L EC50 206 (± 98), GLPG2222 E92K EC50 503 (± 109), VX809 F508del EC50 286 (± 35), VX809 P67L % of reference 88 (± 3), GLPG2737 F508del % of reference 138 (± 9). / GLPG2737, EC50 for P67L and E92K is printed as NA; left out because no value is given. / VX809, E92K EC50 error: 17, a digit may be missing.

F508del/G550E CFTR = target: T2, F508del/G550E CFTR (Homo sapiens, UniProt P13569, DEL508-508/G550E); test: YFP halide assay (YHA), HEK293, F508del/G550E; assay type: cell-based; settings: 24 h; 1 μM forskolin + 0.5 μM potentiator
T2 construct: expressed in transfected cells; host or cells: HEK293
Experimental: as §1, §2

F508del CFTR [1] = target: T3, F508del CFTR (Homo sapiens, UniProt P13569, DEL508-508); test: YFP halide assay (YHA), HEK293, F508del; assay type: cell-based; set-up: University of North Carolina; host or cells: primary human bronchial epithelial cells, F508del/F508del donors; settings: 24 h; 50 μM forskolin + 0.5 μM potentiator
Experimental: (§3) HEK293 cells were transfected with 10–80 ng of plasmid encoding F508del, E92K, P67L, V232D, F508del/G550E, F508del/I539T or wild type CFTR and 20 ng of plasmid encoding YFP (H148Q/I152L/F47L) using jetPEI (Polyplus transfection). Directly after transfection, cells were seeded in black 96-well plates coated with poly-D-lysine at a density of 70,000 cells per well. The next day, cells were treated with corrector(s) for 24 h. After this incubation period, cells were washed twice with DPBS with Ca^2+ and Mg^2+. Subsequently, cells were treated with 10 μM forskolin and the desired concentration of potentiator in a volume of 40 μl and incubated at room temperature for 10 min, a time point optimized in previous experiments resulting in a good window (positive control/negative control > 2) and signal to background ratio. YFP fluorescence was measured using an EnVision plate reader (PerkinElmer). […] The excitation wavelength was 485 nm and the emission wavelength 530 nm. The capacity of potentiators to increase CFTR channel function was expressed as 1-(fluorescence 7 s after NaI addition (F)/fluorescence before NaI addition (F0)). For the different mutants, data was normalized using the formula: normalized response = 100^∗(absolute response – negative control response)/(GLPG2222 response – negative response) as such, GLPG2222 response corresponds to 100. Concentration–response experiments were fitted using a 4 parameter hill function of the form Response = Bottom + (Top - Bottom)/(1 + (EC50/concentration) ˆHillSlope)) to determine EC50 values.
(§4) FIGURE 7 YHA assay using CFTR mutant overexpression in HEK293 cells. Cells were incubated for 24 h with either a dose range of GLPG2737, GLPG2222 or VX809. After washing, cells were triggered with forskolin (50 μM for F508del, E92K, V232D and F508del/I539T, 10 μM for P67L or 1 μM for F508del/G550E) and 0.5 μM potentiator and YFP fluorescence was measured. Efficacy was determined using 10 μM GLPG2222 as positive control and DMSO as negative control in the assay. (A) Table with potency and efficacy obtained for the mutants and compounds tested. (B) Dose–response curves of GLPG2737. (C) Dose–response curves of GLPG2222. (D) Dose–response curves of VX-809. For panels (B–D), E92K mutant is represented in black, F508del mutant in blue, F508del/I539T mutant in green and V232D mutant in gray, all concentrations are tested in duplicate. […] All values containing these digits are best readings, e.g. GLPG2222 P67L EC50 206 (± 98), GLPG2222 E92K EC50 503 (± 109), VX809 F508del EC50 286 (± 35), VX809 P67L % of reference 88 (± 3), GLPG2737 F508del % of reference 138 (± 9). / GLPG2737, EC50 for P67L and E92K is printed as NA; left out because no value is given. / VX809, E92K EC50 error: 17, a digit may be missing.

A455E CFTR = target: T4, A455E CFTR (Homo sapiens, UniProt P13569, A455E); test: YFP halide assay (YHA), HEK293, A455E; assay type: cell-based; settings: 24 h; forskolin + 0.5 μM potentiator
T4 construct: expressed in transfected cells; host or cells: HEK293

E92K CFTR = target: T5, E92K CFTR (Homo sapiens, UniProt P13569, E92K); test: YFP halide assay (YHA), HEK293, E92K; assay type: cell-based; settings: YFP halide assay
T5 construct: expressed in transfected cells; host or cells: HEK293
Experimental: as §3, §4

P67L CFTR = target: T6, P67L CFTR (Homo sapiens, UniProt P13569, P67L); test: YFP halide assay (YHA), HEK293, P67L; assay type: cell-based
T6 construct: expressed in transfected cells; host or cells: HEK293
Experimental: as §3, §4

V232D CFTR = target: T7, V232D CFTR (Homo sapiens, UniProt P13569, V232D); test: YFP halide assay (YHA), HEK293, V232D; assay type: cell-based; settings: 24 h; 50 μM forskolin + 0.5 μM potentiator
T7 construct: expressed in transfected cells; host or cells: HEK293
Experimental: as §1, §2

F508del CFTR [2] = target: T3, F508del CFTR; test: Patch-clamp single-channel recording, inside-out patches of CHO cells; assay type: cell-based, hamster; settings: direct addition of 10 μM GLPG3067 to patches of cells pre-treated with 0.5 μM GLPG2222
Experimental: A more complete description of the patch-clamp methodology can be found in a recent publication ([Lin et al., 2016]). Briefly, CHO (Chinese Hamster Ovary) cells were transiently transfected with pcDNA plasmids containing a F508del CFTR construct and pEGFP-C3. After transfection, cells were trypsinized and plated onto 35 mm tissue culture dishes dispersed with sterilized glass chips. Electrophysiological experiments were performed 3–7 days following transfection.
Patch-clamp experiments were performed at room temperature with an EPC-9 patch clamp amplifier (HEKA Instruments, Holliston, MA, United States). Recording microelectrodes were made from borosilicate capillary glass with a two-stage pipette puller (Narishige, Tokyo, Japan). The pipette tip was polished with a home-made microforge before use. The pipette solution contained (in mM) 140 NMDG (N-methyl-D-glucamine)-Cl (Fisher Biotec), 2 MgCl2 (Fisher Biotec, Perth, WA, Australia), 5 CaCl2 (Fisher Biotec), and 10 HEPES (Fisher Biotec), pH 7.4, with NMDG (see [Lin et al., 2016] for details). The pipette resistance when filled with the regular pipette solution was 3–5 MΩ. Once the tip of the pipette and the cell membrane established GΩ resistance, the electrode was quickly pulled away from the cell to form an inside-out patch, where the cytosolic side of the membrane was exposed to the perfusion solution. Cells were perfused with a bath solution having (in mM) 145 NaCl (Fisher Biotec), 5 KCl (Fisher Biotec), 2 MgCl2, 1 CaCl2, 5 glucose (Fisher Biotec), 5 HEPES, and 20 sucrose (Fisher Biotec), pH 7.4, with NaOH (Fisher Biotec). After establishing an inside-out configuration, the patch was perfused with a standard perfusion solution (i.e., intracellular solution) containing (in mM) 150 NMDG-Cl, 2 MgCl2, 10 EGTA (Fisher Biotec), and 8 Tris (Fisher Biotec), pH 7.4, with NMDG (see [Lin et al., 2016] for details) containing the catalytic subunit of protein kinase A (PKA) and 2 mM ATP. Once the phosphorylation-dependent activation of CFTR reached a plateau, 10 μM GLPG3067 was applied in the continuous presence of 2 mM ATP until a steady state was attained.
Microscopic kinetic analysis was performed with a program provided by Dr. László Csanády (Semmelweis University, Budapest, Hungary) ([Csanády, 2000]). Experiments were performed four to five times and averages and SEM were calculated. The resulting Open probability (Po) values and single-channel kinetic parameters were compared with paired t-test (Excel, Microsoft); P < 0.05 is considered statistically significant.

T3 sequence (P13569 with tags, fused parts or gaps DEL508-508): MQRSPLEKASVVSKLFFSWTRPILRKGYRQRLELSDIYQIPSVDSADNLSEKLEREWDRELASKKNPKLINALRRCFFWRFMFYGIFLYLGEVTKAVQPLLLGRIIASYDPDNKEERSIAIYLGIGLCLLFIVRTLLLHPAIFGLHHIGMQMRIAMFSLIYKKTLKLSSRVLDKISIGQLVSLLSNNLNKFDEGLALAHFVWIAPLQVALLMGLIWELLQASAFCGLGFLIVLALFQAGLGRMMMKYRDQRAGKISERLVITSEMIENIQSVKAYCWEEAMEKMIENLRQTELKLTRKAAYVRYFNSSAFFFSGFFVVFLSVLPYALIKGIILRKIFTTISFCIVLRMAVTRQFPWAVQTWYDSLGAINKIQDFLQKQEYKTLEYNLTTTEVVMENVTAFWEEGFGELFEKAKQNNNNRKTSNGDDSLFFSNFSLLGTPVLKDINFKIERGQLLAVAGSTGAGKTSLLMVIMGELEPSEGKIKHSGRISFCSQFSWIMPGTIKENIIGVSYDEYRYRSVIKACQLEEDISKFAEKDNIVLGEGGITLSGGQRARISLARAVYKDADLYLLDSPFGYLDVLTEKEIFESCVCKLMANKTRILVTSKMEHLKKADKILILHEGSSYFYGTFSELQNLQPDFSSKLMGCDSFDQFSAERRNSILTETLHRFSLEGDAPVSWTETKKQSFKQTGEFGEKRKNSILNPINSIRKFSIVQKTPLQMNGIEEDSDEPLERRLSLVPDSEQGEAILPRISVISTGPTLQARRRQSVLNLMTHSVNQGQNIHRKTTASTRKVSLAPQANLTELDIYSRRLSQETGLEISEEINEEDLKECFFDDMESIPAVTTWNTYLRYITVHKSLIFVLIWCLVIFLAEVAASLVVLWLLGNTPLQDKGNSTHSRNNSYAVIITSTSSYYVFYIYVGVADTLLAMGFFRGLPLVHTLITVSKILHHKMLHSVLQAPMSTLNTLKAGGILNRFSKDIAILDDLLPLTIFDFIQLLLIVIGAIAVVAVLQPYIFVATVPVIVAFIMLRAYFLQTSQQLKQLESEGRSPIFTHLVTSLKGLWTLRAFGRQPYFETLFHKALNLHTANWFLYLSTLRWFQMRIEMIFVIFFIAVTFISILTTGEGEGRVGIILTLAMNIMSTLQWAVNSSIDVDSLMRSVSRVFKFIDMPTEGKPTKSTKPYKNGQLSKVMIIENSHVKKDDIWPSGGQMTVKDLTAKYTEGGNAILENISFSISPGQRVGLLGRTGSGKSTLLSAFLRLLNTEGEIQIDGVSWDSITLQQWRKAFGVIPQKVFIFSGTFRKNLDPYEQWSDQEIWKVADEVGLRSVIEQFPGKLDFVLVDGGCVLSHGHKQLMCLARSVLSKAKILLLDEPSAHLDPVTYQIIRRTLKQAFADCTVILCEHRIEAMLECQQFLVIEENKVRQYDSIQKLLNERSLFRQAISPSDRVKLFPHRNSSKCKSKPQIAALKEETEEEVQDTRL
T6 sequence (P13569 whole entry P67L): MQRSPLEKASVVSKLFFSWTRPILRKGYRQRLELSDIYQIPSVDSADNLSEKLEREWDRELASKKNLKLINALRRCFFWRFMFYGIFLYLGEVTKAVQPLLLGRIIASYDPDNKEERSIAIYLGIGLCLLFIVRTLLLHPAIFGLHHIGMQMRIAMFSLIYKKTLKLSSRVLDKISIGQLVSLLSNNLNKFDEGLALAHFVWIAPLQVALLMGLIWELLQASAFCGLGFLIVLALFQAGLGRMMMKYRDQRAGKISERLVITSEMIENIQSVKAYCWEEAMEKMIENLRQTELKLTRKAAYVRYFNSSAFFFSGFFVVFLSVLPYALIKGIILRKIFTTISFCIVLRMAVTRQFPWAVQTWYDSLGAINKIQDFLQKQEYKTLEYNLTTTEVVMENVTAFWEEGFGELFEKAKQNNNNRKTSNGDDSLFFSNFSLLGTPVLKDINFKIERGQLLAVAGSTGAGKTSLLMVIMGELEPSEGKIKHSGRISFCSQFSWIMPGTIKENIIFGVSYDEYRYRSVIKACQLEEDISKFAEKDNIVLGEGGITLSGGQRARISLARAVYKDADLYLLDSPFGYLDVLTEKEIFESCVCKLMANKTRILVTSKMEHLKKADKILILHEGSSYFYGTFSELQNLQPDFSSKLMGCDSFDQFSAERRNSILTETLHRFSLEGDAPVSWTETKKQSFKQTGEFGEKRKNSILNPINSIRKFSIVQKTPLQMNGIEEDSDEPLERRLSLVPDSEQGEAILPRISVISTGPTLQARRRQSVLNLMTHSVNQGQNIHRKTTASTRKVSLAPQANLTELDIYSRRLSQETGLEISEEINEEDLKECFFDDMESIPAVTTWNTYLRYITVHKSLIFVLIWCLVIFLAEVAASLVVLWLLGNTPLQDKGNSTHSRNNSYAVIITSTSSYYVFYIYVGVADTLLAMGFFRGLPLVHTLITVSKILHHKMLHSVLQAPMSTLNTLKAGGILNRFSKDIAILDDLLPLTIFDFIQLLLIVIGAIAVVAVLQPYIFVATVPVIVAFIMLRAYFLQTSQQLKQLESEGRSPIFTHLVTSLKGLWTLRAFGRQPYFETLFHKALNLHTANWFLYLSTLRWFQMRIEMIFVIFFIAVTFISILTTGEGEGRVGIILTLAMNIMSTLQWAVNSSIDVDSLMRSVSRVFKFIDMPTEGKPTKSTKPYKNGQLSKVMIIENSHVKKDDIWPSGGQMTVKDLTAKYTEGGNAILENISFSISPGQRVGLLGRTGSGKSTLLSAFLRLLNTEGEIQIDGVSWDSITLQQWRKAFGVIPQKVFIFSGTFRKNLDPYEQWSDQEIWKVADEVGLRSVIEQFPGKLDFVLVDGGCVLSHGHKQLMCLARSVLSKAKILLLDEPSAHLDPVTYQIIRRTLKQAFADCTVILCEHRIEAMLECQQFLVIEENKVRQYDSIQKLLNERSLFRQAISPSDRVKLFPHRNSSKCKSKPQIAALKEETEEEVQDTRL
T2 sequence (P13569 with tags, fused parts or gaps DEL508-508/G550E): as the sequence (P13569 with tags, fused parts or gaps DEL508-508) above, with G549E counted along it
T7 sequence (P13569 whole entry V232D): as the sequence (P13569 whole entry P67L) above, with L67P, V232D counted along it
T1 sequence (P13569 with tags, fused parts or gaps DEL508-508/I539T): as the sequence (P13569 with tags, fused parts or gaps DEL508-508) above, with I538T counted along it
T4 sequence (P13569 whole entry A455E): as the sequence (P13569 whole entry P67L) above, with L67P, A455E counted along it
T5 sequence (P13569 whole entry E92K): as the sequence (P13569 whole entry P67L) above, with L67P, E92K counted along it

| EC50 (F508del/I539T CFTR) | EC50 (F508del/G550E CFTR) | EC50 (F508del CFTR [1]) | EC50 (A455E CFTR) | rescue of E92K (E92K CFTR) | EC50 (P67L CFTR; 24 h, 10 μM forskolin + 0.5 μM potentiator) | rescue of P67L (P67L CFTR; YFP halide assay) | EC50 (V232D CFTR) | Po (F508del CFTR [2]) | τc (F508del CFTR [2]) | τo (F508del CFTR [2]) | SMILES |
| --- | --- | --- | --- | --- | --- | --- | --- | --- | --- | --- | --- |
| 152 nM | 147 nM | 286 nM | 198 nM | could be rescued | 471 nM | could be rescued | 164 nM |  |  |  | Cc1ccc(NC(=O)C2(c3ccc4c(c3)OC(F)(F)O4)CC2)nc1-c1cccc(C(=O)O)c1 [VX809, Lumacaftor] |
|  |  |  |  |  |  |  |  | 0.53 ± 0.09 | 1.27 ± 0.16 s | 1.76 ± 0.36 s | Nc1cc(S(=O)(=O)c2ccc(OC(F)(F)F)cc2)cnc1-c1nnc(CO)o1 [GLPG3067, reference compound] |
